Source: article PMC10356948, “Crystal structures of herbicide-detoxifying esterase reveal a lid loop affecting substrate binding and activity” (Nature Communications, 2023)

Tests used:
[1] = target: T1, SulE (Hansschlegelia zhihuaiae, UniProt G9I933); assay: SPR (Biacore T200, protein amine-coupled to CM7 chip), steady-state affinity; type: binding
T1 construct: pET-29a(+), E. coli BL21(DE3), C-terminal His6 tag; full-length precursor 398 aa, predicted signal peptide cleavage Ala37/Glu38; homodimer, lid loop of one subunit covers active site of the other; residues 12-360 (mature count) seen in crystal

[2] = target: T2, SulE (Hansschlegelia zhihuaiae, UniProt G9I933, P80R); assay: as above; type: binding
T2 construct: pET-29a(+), E. coli BL21(DE3), C-terminal His6 tag; full-length precursor 398 aa, predicted signal peptide cleavage Ala37/Glu38; homodimer, lid loop of one subunit covers active site of the other; residues 12-360 (mature count) seen in crystal

[3] = target: T1, SulE; assay: X-ray crystal structure (co-crystal with CE, hydrolysed in crystallisation); type: binding; conditions: 5 mM CE, 4 °C, pH 5.5; active site
[4] = target: T3, SulE (Hansschlegelia zhihuaiae, UniProt G9I933, S245A/H369A); assay: X-ray crystal structure (co-crystal); type: binding; conditions: 5 mM substrate, 4 °C, pH 7.0; active site, catalytically dead mutant
T3 construct: pET-29a(+), E. coli BL21(DE3), C-terminal His6 tag; full-length precursor 398 aa, predicted signal peptide cleavage Ala37/Glu38; homodimer, lid loop of one subunit covers active site of the other; residues 12-360 (mature count) seen in crystal

[5] = target: T4, SulE (Hansschlegelia zhihuaiae, UniProt G9I933, P80R/S245A/H369A); assay: X-ray crystal structure (co-crystal); type: binding; conditions: 5 mM substrate, 4 °C, pH 7.0; active site, catalytically dead mutant
T4 construct: pET-29a(+), E. coli BL21(DE3), C-terminal His6 tag; full-length precursor 398 aa, predicted signal peptide cleavage Ala37/Glu38; homodimer, lid loop of one subunit covers active site of the other; residues 12-360 (mature count) seen in crystal

[6] = target: SulE (wild-type esterase from Hansschlegelia zhihuaiae S113) (Hansschlegelia zhihuaiae S113); assay: crystal structure; X-ray crystal structures of purified SulE and mutants; apo-SulE at 1.46 Å, space group P21, two monomers in the asymmetric unit; sitting-drop vapor diffusion at 4 °C; apo-SulE in 0.1 M citric acid-trisodium citrate pH 5.5, 20% PEG 4000; cocrystals and P44R mutants in 0.1 M ammonium tartrate dibasic pH 7.0, 12-15% PEG 3350, with 5 mM substrate

T2 sequence (G9I933 entry or part of it P80R): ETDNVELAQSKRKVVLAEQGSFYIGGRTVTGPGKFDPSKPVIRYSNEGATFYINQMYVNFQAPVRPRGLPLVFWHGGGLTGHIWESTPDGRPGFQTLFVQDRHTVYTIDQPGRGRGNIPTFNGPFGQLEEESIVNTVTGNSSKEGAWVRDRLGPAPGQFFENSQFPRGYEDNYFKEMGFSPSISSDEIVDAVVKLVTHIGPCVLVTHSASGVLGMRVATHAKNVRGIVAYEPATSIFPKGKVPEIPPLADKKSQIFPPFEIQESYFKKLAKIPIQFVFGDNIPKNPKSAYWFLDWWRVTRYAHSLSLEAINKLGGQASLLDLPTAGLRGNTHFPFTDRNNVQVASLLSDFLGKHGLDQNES
T3 sequence (G9I933 entry or part of it S245A/H369A): as the sequence (G9I933 entry or part of it P80R) above, with R43P, S208A, H332A counted along it
T1 sequence (G9I933 entry or part of it): as the sequence (G9I933 entry or part of it P80R) above, with R43P counted along it
T4 sequence (G9I933 entry or part of it P80R/S245A/H369A): as the sequence (G9I933 entry or part of it P80R) above, with S208A, H332A counted along it

Row | Molecule | Kd [1] [µM] | Kd [2] [µM] | X-ray crystal structure (co-crystal) [4] | other results
1 | COC(=O)c1ccccc1CS(=O)(=O)NC(=O)Nc1nc(OC)cc(OC)n1 [BM, bensulfuron-methyl] | 6.34 | 5.75 |  | 
2 | COc1cc(Cl)nc(NC(=O)NS(=O)(=O)c2ccccc2C(=O)O)n1 [CA, chlorimuron acid] |  |  |  | X-ray crystal structure (co-crystal with CE, hydrolysed in crystallisation) [3]: crystal structures of wild-type SulE in complex with CA
3 | CCOC(=O)c1ccccc1S(=O)(=O)NC(=O)Nc1nc(Cl)cc(OC)n1 [CE, chlorimuron-ethyl] | 5.29 | 1.36 |  | 
4 | CCOc1nc(NC)nc(NC(=O)NS(=O)(=O)c2ccccc2C(=O)OC)n1 [EM, ethametsulfuron-methyl] |  |  | mutant S209A/H333A in complex with MM, SM, TM, TrM, EM, BM, and CE | 
5 | COC(=O)c1ccccc1S(=O)(=O)NC(=O)Nc1nc(C)nc(OC)n1 [MM, metsulfuron-methyl] | 5.58 | 2.89 | mutant S209A/H333A in complex with MM, SM, TM, TrM, EM, BM, and CE | X-ray crystal structure (co-crystal) [5]: the triple mutant P44R/S209A/H333A in complex with MM, CE, and TM
6 | COC(=O)c1sccc1S(=O)(=O)NC(=O)Nc1nc(C)nc(OC)n1 [TM, thifensulfuron-methyl] | 8.85 | 7.25 |  | 
7 | COC(=O)c1ccccc1S(=O)(=O)NC(=O)N(C)c1nc(C)nc(OC)n1 [TrM, tribenuron-methyl] |  |  | mutant S209A/H333A in complex with MM, SM, TM, TrM, EM, BM, and CE | 
8 | SulE (wild-type esterase from Hansschlegelia zhihuaiae S113) (enzyme) |  |  |  | stoichiometry N [6]: 2
